Data as given in publication PMC9692703 (2022).

Tests used:
[1] = system: Adenosine aptamer (Aptade), 4 bp (DNA, aptamer) ACCTGGGGGAGTATTGCGGAGGAAGGT; assay: ThT fluorescence enhancement; settings: 100 mM NaCl, 10 mM MgCl2; 10 mM PB pH 7; 100 nM aptamer
[2] = system: A30/T30 duplex (DNA, duplex) AAAAAAAAAAAAAAAAAAAAAAAAAAAAAA/TTTTTTTTTTTTTTTTTTTTTTTTTTTTTT; assay: SGI staining fluorescence; settings: 100 mM NaCl; 10 mM PB pH 7; 100 nM DNA, 0.5x SGI

Row | binding [1] | binding [2] | SMILES
1 | yes | – | Cc1ccc2c(c1)sc(-c1ccc(N(C)C)cc1)[n+]2C
2 | – | yes | CCCN(CCCN(C)C)c1cc(C=C2Sc3ccccc3N2C)c2ccccc2[n+]1-c1ccccc1
